For one experiment, the system named is Escherichia coli. The experiment is described as follows: In vitro antibacterial activity against Escherichia coli NIH JC-2 bacteria was determined. It counts as functional.
The test system of a further experiment is Klebsiella pneumoniae. The experiment is described as follows: In vitro antibacterial activity against Klebsiella pneumoniae NCTC-9632 bacteria was determined. Format: functional.
The species entered for experiment [1] is Mus musculus. Description: Protective effect on systemic infection in mice caused by clinically isolated Pseudomonas aeruginosa 67. It counts as functional.
Experiment [2] is filed under the species Mus musculus. Description: (§1) Protective effect on systemic infection in mice caused by clinically isolated Pseudomonas aeruginosa 58. Format: functional.
The subject of experiment [3] is Pseudomonas aeruginosa. The description is as §1. Format: functional.
The subject of experiment [4] is Pseudomonas aeruginosa. The experiment is described as follows: In vitro antibacterial activity against CAZ resistant Pseudomonas aeruginosa 59 was determined. Format: functional.
Experiment [5] relates to Pseudomonas aeruginosa. Description: In vitro antibacterial activity against AZT resistant Pseudomonas aeruginosa 47 was determined. It counts as functional.
Experiment [6] has as its system Pseudomonas aeruginosa. Description: In vitro antibacterial activity against AZT resistant Pseudomonas aeruginosa 56 was determined. Format: functional.
Experiment [7] relates to Pseudomonas aeruginosa. Description: In vitro antibacterial activity against AZT resistant Pseudomonas aeruginosa 59 was determined. Format: functional.
Experiment [8] concerns Pseudomonas aeruginosa. The experiment is described as follows: In vitro antibacterial activity against AZT resistant Pseudomonas aeruginosa 69 was determined. Format: functional.
Experiment [9] concerns Pseudomonas aeruginosa. Description: In vitro antibacterial activity against CAZ resistant Pseudomonas aeruginosa 47 was determined. It counts as functional.
For experiment [10], the system named is Pseudomonas aeruginosa. Description: In vitro antibacterial activity against CAZ resistant Pseudomonas aeruginosa 56 was determined. Format: functional.
Experiment [11] deals with Pseudomonas aeruginosa. Description: In vitro antibacterial activity against CAZ resistant Pseudomonas aeruginosa 69 was determined. Format: functional.
The test system of experiment [12] is Pseudomonas aeruginosa. The experiment is described as follows: In vitro antibacterial activity against IPM resistant Pseudomonas aeruginosa 47 was determined. Format: functional.
In experiment [13] the test system is Pseudomonas aeruginosa. Description: In vitro antibacterial activity against IPM resistant Pseudomonas aeruginosa 56 was determined. Format: functional.
Experiment [14] deals with Pseudomonas aeruginosa. Description: In vitro antibacterial activity against IPM resistant Pseudomonas aeruginosa 59 was determined. It counts as functional.
Experiment [15] deals with Pseudomonas aeruginosa. The experiment is described as follows: In vitro antibacterial activity against IPM resistant Pseudomonas aeruginosa 69 was determined. It counts as functional.
In experiment [16] the test system is Pseudomonas aeruginosa. The experiment is described as follows: In vitro antibacterial activity against Pseudomonas aeruginosa 47 was determined. It counts as functional.
The test system of experiment [17] is Pseudomonas aeruginosa. The experiment is described as follows: In vitro antibacterial activity against Pseudomonas aeruginosa 56 was determined. It counts as functional.
The subject of experiment [18] is Pseudomonas aeruginosa. The experiment is described as follows: In vitro antibacterial activity against Pseudomonas aeruginosa 59 was determined. It counts as functional.
Experiment [19] concerns Pseudomonas aeruginosa. Description: In vitro antibacterial activity against Pseudomonas aeruginosa 69 was determined. Format: functional.
For experiment [20], the system named is Pseudomonas aeruginosa. The experiment is described as follows: In vitro antibacterial activity against Pseudomonas aeruginosa ATCC 10145 bacteria was determined. It counts as functional.
Experiment [21] has as its system Pseudomonas aeruginosa. Description: In vitro antibacterial activity against Pseudomonas aeruginosa NCTC-10490 bacteria was determined. It counts as functional.
Experiment [22] concerns Pseudomonas aeruginosa. The experiment is described as follows: Antibacterial activity against clinically isolated Pseudomonas aeruginosa 67.

MIC and ED50 data for five compounds are collected here from ChEMBL document CHEMBL1151012, “Synthesis and anti-pseudomonal activity of new 2-isocephems with a dihydroxypyridone moiety at C-7” (1994).

Values after ≈ are worked out from the molar mass of the structure shown. Bounds are passed on as bounds.

In the case of `Cc1nc(SCC2=C(C(=O)O)N3C(=O)[C@@H](NC(=O)/C(=N\OCc4cc(=O)c(O)cn4O)c4csc(N)n4)[C@H]3CS2)sc1CC(=O)O`, the minimum inhibitory concentration (MIC) against Escherichia coli amounted to 0.1 µg/mL (≈ 0.141 µM); against Klebsiella pneumoniae, 0.05 µg/mL (≈ 0.0704 µM); against Pseudomonas aeruginosa [3], 0.05 µg/mL (≈ 0.0704 µM); against Pseudomonas aeruginosa [4], 50 µg/mL (≈ 70.4 µM); with Pseudomonas aeruginosa [5], 25 µg/mL (≈ 35.2 µM); in the experiment on Pseudomonas aeruginosa [6], 50 µg/mL (≈ 70.4 µM). Moreover, the MIC against Pseudomonas aeruginosa [7] was determined as 25 µg/mL (≈ 35.2 µM); in the experiment with Pseudomonas aeruginosa [8], 25 µg/mL (≈ 35.2 µM); with Pseudomonas aeruginosa [9], 50 µg/mL (≈ 70.4 µM); against Pseudomonas aeruginosa [10], 12.5 µg/mL (≈ 17.6 µM); against Pseudomonas aeruginosa [11], 50 µg/mL (≈ 70.4 µM); against Pseudomonas aeruginosa [12], 25 µg/mL (≈ 35.2 µM). For the same compound, the MIC with Pseudomonas aeruginosa [13] was 25 µg/mL (≈ 35.2 µM); against Pseudomonas aeruginosa [14] it was 50 µg/mL (≈ 70.4 µM); in the experiment with Pseudomonas aeruginosa [15], 50 µg/mL (≈ 70.4 µM); against Pseudomonas aeruginosa [16] it was 1.56 µg/mL (≈ 2.2 µM); with Pseudomonas aeruginosa [17], 1.56 µg/mL (≈ 2.2 µM); in the experiment with Pseudomonas aeruginosa [18], 1.56 µg/mL (≈ 2.2 µM). Further, the minimum inhibitory concentration (MIC) was 3.13 µg/mL (≈ 4.41 µM) in the experiment with Pseudomonas aeruginosa [19], 0.05 µg/mL (≈ 0.0704 µM) against Pseudomonas aeruginosa [20], at most 0.025 µg/mL with Pseudomonas aeruginosa [21] and 0.1 µg/mL (≈ 0.141 µM) against Pseudomonas aeruginosa [22]. In addition, the ED50 was 21.8 mg/kg in the experiment filed under Mus musculus [1] and 3.2 mg/kg in the experiment filed under Mus musculus [2].

Consider `Nc1nc(/C(=N/OCc2cc(=O)c(O)cn2O)C(=O)N[C@@H]2C(=O)N3C(C(=O)O)=C(CSc4nncs4)SC[C@H]23)cs1` (stereo in doubt), for which the MIC is 0.2 µg/mL (≈ 0.313 µM) in the experiment with Escherichia coli, at most 0.025 µg/mL in the experiment on Klebsiella pneumoniae, 0.1 µg/mL (≈ 0.157 µM) in the experiment on Pseudomonas aeruginosa [20] and at most 0.025 µg/mL in the experiment on Pseudomonas aeruginosa [21].

With `Nc1nc(/C(=N/OCc2cc(=O)c(O)cn2O)C(=O)N[C@@H]2C(=O)N3C(C(=O)O)=C(CSc4nnnn4CC(=O)O)SC[C@H]23)cs1` (stereo in doubt), the MIC in the experiment with Escherichia coli was 0.05 µg/mL (≈ 0.0735 µM); against Klebsiella pneumoniae, at most 0.025 µg/mL; against Pseudomonas aeruginosa [20] it was at most 0.025 µg/mL; in the experiment on Pseudomonas aeruginosa [21], at most 0.025 µg/mL.

For the compound `Nc1nc(/C(=N/OCc2cc(=O)c(O)cn2O)C(=O)N[C@@H]2C(=O)N3C(C(=O)O)=C(CSc4cnns4)SC[C@H]23)cs1` (stereo in doubt), the MIC against Escherichia coli was 0.2 µg/mL (≈ 0.313 µM); against Klebsiella pneumoniae it was 0.1 µg/mL (≈ 0.157 µM); with Pseudomonas aeruginosa [20], 0.39 µg/mL (≈ 0.611 µM); in the experiment on Pseudomonas aeruginosa [21], at most 0.025 µg/mL.

For `CC(C)(O/N=C(\C(=O)N[C@@H]1C(=O)N2C(C(=O)[O-])=C(C[n+]3ccccc3)CS[C@H]12)c1csc(N)n1)C(=O)O` [CEFTAZIDIME], the MIC was 0.39 µg/mL (≈ 0.714 µM) with Escherichia coli; 0.05 µg/mL (≈ 0.0915 µM) against Klebsiella pneumoniae; 3.13 µg/mL (≈ 5.73 µM) in the experiment listed under Mus musculus [2]; 1.56 µg/mL (≈ 2.85 µM) against Pseudomonas aeruginosa [20]; 1.56 µg/mL (≈ 2.85 µM) in the experiment with Pseudomonas aeruginosa [21]; 1.56 µg/mL (≈ 2.85 µM) in the experiment on Pseudomonas aeruginosa [22]. The ED50 in the experiment listed under Mus musculus [1] was above 100 mg/kg; in the experiment listed under Mus musculus [2], 31.7 mg/kg.

Usually MIC stands for the least concentration at which growth counts as inhibited. Read a high MIC as a less susceptible organism. Usually ED50 stands for the midpoint of the dose-response relation. A low value points to greater potency.
